Assay results taken from ChEMBL document CHEMBL1201861, “Genomics of Drug Sensitity in Cancer screening data, Wellcome Trust Sanger Institute”.

What was measured:
GAMG = experiment: cells; assay type: functional, cell-based, Homo sapiens; conditions: Homo sapiens, GAMG;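 further: cell growth inhibition measured by a viability assay in the GAMG human cell line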
Description: SANGER: Inhibition of human GAMG cell growth in a cell viability assay.

KYSE-520 cell line = experiment: cells; assay type: functional, cell-based, Homo sapiens; conditions: Homo sapiens, KYSE-520;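 further: growth inhibition of human KYSE-520 cells, read out with a viability assay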
Description: SANGER: Inhibition of human KYSE-520 cell growth in a cell viability assay.

BHY = experiment: cells; assay type: functional, cell-based, Homo sapiens; conditions: Homo sapiens, BHY;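 further: cell growth inhibition read out by a viability assay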
Description: SANGER: Inhibition of human BHY cell growth in a cell viability assay.

CAL-54 = experiment: cells; assay type: functional, cell-based, Homo sapiens; conditions: Homo sapiens, CAL-54;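 further: growth inhibition of CAL-54 cells, read out by a viability measurement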
Description: SANGER: Inhibition of human CAL-54 cell growth in a cell viability assay.

MDA-MB-361 = experiment: cells; assay type: functional, cell-based, Homo sapiens; conditions: Homo sapiens, MDA-MB-361
IST-SL2 = experiment: cells; assay type: functional, cell-based, Homo sapiens; conditions: Homo sapiens, IST-SL2;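 further: growth inhibition of human IST-SL2 cells, read out by a cell viability assay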
Description: SANGER: Inhibition of human IST-SL2 cell growth in a cell viability assay.

CHP-212 = experiment: cells; assay type: functional, cell-based, Homo sapiens; conditions: Homo sapiens, CHP-212
Description: SANGER: Inhibition of human CHP-212 cell growth in a cell viability assay.

CWR22R = experiment: cells; assay type: functional, cell-based, Homo sapiens; conditions: Homo sapiens, 22Rv1;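 further: growth inhibition of 22Rv1 cells, read out with a cell viability assay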
Description: SANGER: Inhibition of human 22RV1 cell growth in a cell viability assay.

CAPAN-1 = experiment: cells; assay type: functional, cell-based, Homo sapiens; conditions: Homo sapiens, CAPAN-1;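 further: growth suppression of CAPAN-1 cells, read out by a cell viability assay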
Description: SANGER: Inhibition of human CAPAN-1 cell growth in a cell viability assay.

CAL-120 = experiment: cells; assay type: functional, cell-based, Homo sapiens; conditions: Homo sapiens, CAL-120;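 further: cell growth inhibition, read out as cell viability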
Description: SANGER: Inhibition of human CAL-120 cell growth in a cell viability assay.

WSU-NHL = experiment: cells; assay type: functional, cell-based, Homo sapiens; conditions: Homo sapiens, WSU-NHL;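 further: growth inhibition of human WSU-NHL cells, read out with a cell viability assay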
Description: SANGER: Inhibition of human WSU-NHL cell growth in a cell viability assay.

MeWo = experiment: cells; assay type: functional, cell-based, Homo sapiens; conditions: Homo sapiens, MeWo;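 further: growth inhibition of MeWo cells, determined by a cell viability readout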
Description: SANGER: Inhibition of human Mewo cell growth in a cell viability assay.

MDA-MB-157 = experiment: cells; assay type: functional, cell-based, Homo sapiens; conditions: Homo sapiens, MDA-MB-157
Description: SANGER: Inhibition of human MDA-MB-157 cell growth in a cell viability assay.

TYK-nu = experiment: cells; assay type: functional, cell-based, Homo sapiens; conditions: Homo sapiens, TYK-nu;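 further: growth inhibition of human TYK-nu cells, read out by a cell viability assay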
Description: SANGER: Inhibition of human TYK-nu cell growth in a cell viability assay.

SF-295 = experiment: cells; assay type: functional, cell-based, Homo sapiens; conditions: Homo sapiens, SF-295;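 further: growth inhibition of SF-295 cells, read out with a cell viability assay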
Description: SANGER: Inhibition of human SF295 cell growth in a cell viability assay.

AU565 = experiment: cells; assay type: functional, cell-based, Homo sapiens; conditions: Homo sapiens, AU565;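 further: cell viability assay measuring growth inhibition of human AU565 cells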
Description: SANGER: Inhibition of human AU565 cell growth in a cell viability assay.

SAOS-2 = experiment: cells; assay type: functional, cell-based, Homo sapiens; conditions: Homo sapiens, SAOS-2;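 further: growth inhibition of human Saos-2 cells determined by a cell viability assay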
Description: SANGER: Inhibition of human Saos-2 cell growth in a cell viability assay.

RPMI-6666 = experiment: cells; assay type: functional, cell-based, Homo sapiens; conditions: Homo sapiens, RPMI-6666
Description: SANGER: Inhibition of human RPMI-6666 cell growth in a cell viability assay.

KU-19-19 = experiment: cells; assay type: functional, cell-based, Homo sapiens; conditions: Homo sapiens, KU-19-19
Description: SANGER: Inhibition of human KU-19-19 cell growth in a cell viability assay.

NCI-H2405 = experiment: cells; assay type: functional, cell-based, Homo sapiens; conditions: Homo sapiens, NCI-H2405;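 further: growth inhibition of the human cell line, read out with a cell viability assay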
Description: SANGER: Inhibition of human NCI-H2405 cell growth in a cell viability assay.

LoVo = experiment: cells; assay type: functional, cell-based, Homo sapiens; conditions: Homo sapiens, LoVo;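 further: growth inhibition of human LoVo cells, read out with a cell viability assay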
Description: SANGER: Inhibition of human LoVo cell growth in a cell viability assay.

IGROV-1 = experiment: cells; assay type: functional, cell-based, Homo sapiens; conditions: Homo sapiens, IGROV-1;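 further: reduction of IGROV-1 cell growth, read out with a viability assay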
Description: SANGER: Inhibition of human IGROV-1 cell growth in a cell viability assay.

NCI-H322M = experiment: cells; assay type: functional, cell-based, Homo sapiens; conditions: Homo sapiens, NCI-H322M;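 further: cell viability assay measuring inhibition of growth of human NCI-H322M cells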
Description: SANGER: Inhibition of human NCI-H322M cell growth in a cell viability assay.

TUR = experiment: cells; assay type: functional, cell-based, Homo sapiens; conditions: Homo sapiens, TUR;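 further: growth inhibition of human TUR cells, read out with a cell viability assay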
Description: SANGER: Inhibition of human TUR cell growth in a cell viability assay.

FaDu = experiment: cells; assay type: functional, cell-based, Homo sapiens; conditions: Homo sapiens, FaDu;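 further: cell viability readout of growth inhibition in FaDu cells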
Description: SANGER: Inhibition of human FADU cell growth in a cell viability assay.

SiHa = experiment: cells; assay type: functional, cell-based, Homo sapiens; conditions: Homo sapiens, SiHa;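 further: Viability-based readout of growth inhibition in SiHa cells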
Description: SANGER: Inhibition of human SiHa cell growth in a cell viability assay.

MEL-HO = experiment: cells; assay type: functional, cell-based, Homo sapiens; conditions: Homo sapiens, MEL-HO
Description: SANGER: Inhibition of human MEL-HO cell growth in a cell viability assay.

G-361 = experiment: cells; assay type: functional, cell-based, Homo sapiens; conditions: Homo sapiens, G-361
HT-3 = experiment: cells; assay type: functional, cell-based, Homo sapiens; conditions: Homo sapiens, HT-3;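 further: growth inhibition measured with a cell viability readout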
Description: SANGER: Inhibition of human HT-3 cell growth in a cell viability assay.

SW837 = experiment: cells; assay type: functional, cell-based, Homo sapiens; conditions: Homo sapiens, SW837;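 further: growth inhibition of SW837 cells, determined with a cell viability assay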
Description: SANGER: Inhibition of human SW837 cell growth in a cell viability assay.

NCI-H1417 = experiment: cells; assay type: functional, cell-based, Homo sapiens; conditions: Homo sapiens, NCI-H1417;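 further: human NCI-H1417 cells, growth inhibition determined with a cell viability readout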
Description: SANGER: Inhibition of human NCI-H1417 cell growth in a cell viability assay.

DBTRG-05MG = experiment: cells; assay type: functional, cell-based, Homo sapiens; conditions: Homo sapiens, DBTRG-05MG;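 further: cell viability assay measuring growth inhibition of human DBTRG-05MG cells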
Description: SANGER: Inhibition of human DBTRG-05MG cell growth in a cell viability assay.

SU-DHL-1 = experiment: SANGER: Inhibition of human SU-DHL-1 cell growth in a cell viability assay.; assay type: functional, cell-based; conditions: Homo sapiens, SU-DHL-1
A-427 = experiment: cells; assay type: functional, cell-based, Homo sapiens; conditions: Homo sapiens, A-427;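 further: growth inhibition of human A-427 cells, read out by a cell viability assay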
Description: SANGER: Inhibition of human A427 cell growth in a cell viability assay.

T98G = experiment: cells; assay type: functional, cell-based, Homo sapiens; conditions: Homo sapiens, T98G;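 further: growth inhibition of T98G cells, read out by a cell viability assay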
Description: SANGER: Inhibition of human T98G cell growth in a cell viability assay.

TE-441-T = experiment: cells; assay type: functional, cell-based, Homo sapiens; conditions: Homo sapiens, TE-441-T
Description: SANGER: Inhibition of human TE-441-T cell growth in a cell viability assay.

MKN-28 = experiment: cells; assay type: functional, cell-based, Homo sapiens; conditions: Homo sapiens, MKN-28;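 further: cell viability assay read-out, IC50 reflects suppression of growth of human MKN-28 cells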
Description: SANGER: Inhibition of human MKN28 cell growth in a cell viability assay.

EFO-21 = experiment: cells; assay type: functional, cell-based, Homo sapiens; conditions: Homo sapiens, EFO-21;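 further: growth inhibition of EFO-21 cells measured with a viability assay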
Description: SANGER: Inhibition of human EFO-21 cell growth in a cell viability assay.

SNU-C1 = experiment: cells; assay type: functional, cell-based, Homo sapiens; conditions: Homo sapiens, SNU-C1;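 further: growth inhibition of SNU-C1 human cells, read out by a cell viability assay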
Description: SANGER: Inhibition of human SNU-C1 cell growth in a cell viability assay.

SBC-5 = experiment: cells; assay type: functional, cell-based, Homo sapiens; conditions: Homo sapiens, SBC-5;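 further: cell viability assay read-out, IC50 is the concentration that inhibits growth of the cells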
Description: SANGER: Inhibition of human SBC-5 cell growth in a cell viability assay.

RPMI 8402 = experiment: SANGER: Inhibition of human RPMI-8402 cell growth in a cell viability assay.; assay type: functional, cell-based; conditions: Homo sapiens, RPMI 8402
NCI-H1522 = experiment: cells; assay type: functional, cell-based, Homo sapiens; conditions: Homo sapiens, NCI-H1522;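 further: growth inhibition of NCI-H1522 cells, read out with a cell viability assay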
Description: SANGER: Inhibition of human NCI-H1522 cell growth in a cell viability assay.

ARH-77 = experiment: cells; assay type: functional, cell-based, Homo sapiens; conditions: Homo sapiens, ARH-77;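 further: growth inhibition of ARH-77 cells, read out by a cell viability assay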
Description: SANGER: Inhibition of human ARH-77 cell growth in a cell viability assay.

NUGC-3 = experiment: cells; assay type: functional, cell-based, Homo sapiens; conditions: Homo sapiens, NUGC-3;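 further: growth inhibition of human NUGC-3 cells, read out with a cell viability assay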
Description: SANGER: Inhibition of human NUGC-3 cell growth in a cell viability assay.

PC-14 = experiment: cells; assay type: functional, cell-based, Homo sapiens; conditions: Homo sapiens, PC-14;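 further: cell viability assay measuring inhibition of PC-14 cell growth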
Description: SANGER: Inhibition of human PC-14 cell growth in a cell viability assay.

How did the IC50 (GAMG) turn out when C=C(c1ccc(C(=O)O)cc1)c1cc2c(cc1C)C(C)(C)CCC2(C)C [BEXAROTENE] was run?
Its IC50 is greater than 8 µM.

And the IC50 (KYSE-520 cell line)?
Its IC50 is greater than 8 µM.

And the IC50 (BHY)?
The IC50 was greater than 8 µM.

What about the IC50 (CAL-54) of the same compound?
The IC50 was greater than 8 µM.

And the IC50 (MDA-MB-361)?
Its IC50 is greater than 8 µM.

What about the IC50 (IST-SL2) of the same compound?
Its IC50 is greater than 8 µM.

And the IC50 (CHP-212)?
Its IC50 is greater than 8 µM.

And the IC50 (CWR22R)?
The IC50 was greater than 8 µM.

And the IC50 (CAPAN-1)?
The IC50 was greater than 8 µM.

What about the IC50 (CAL-120) of the same compound?
Its IC50 is greater than 8 µM.

What about the IC50 (WSU-NHL) of the same compound?
The IC50 was greater than 8 µM.

What about the IC50 (MeWo) of the same compound?
Its IC50 is greater than 8 µM.

What about the IC50 (MDA-MB-157) of the same compound?
Its IC50 is greater than 8 µM.

What about the IC50 (TYK-nu) of the same compound?
The IC50 was 7.11 µM.

What about the IC50 (SF-295) of the same compound?
The IC50 was 5.17 µM.

What about the IC50 (AU565) of the same compound?
The IC50 was greater than 8 µM.

And the IC50 (SAOS-2)?
Its IC50 is greater than 8 µM.

What about the IC50 (RPMI-6666) of the same compound?
Its IC50 is greater than 8 µM.

And the IC50 (KU-19-19)?
The IC50 was greater than 8 µM.

And the IC50 (NCI-H2405)?
The IC50 was greater than 8 µM.

And the IC50 (LoVo)?
The IC50 was 5.92 µM.

What about the IC50 (IGROV-1) of the same compound?
Its IC50 is greater than 8 µM.

And the IC50 (NCI-H322M)?
Its IC50 is greater than 8 µM.

And the IC50 (TUR)?
The IC50 was greater than 8 µM.

And the IC50 (FaDu)?
The IC50 was greater than 8 µM.

And the IC50 (SiHa)?
The IC50 was greater than 8 µM.

What about the IC50 (MEL-HO) of the same compound?
Its IC50 is 0.531 µM.

What about the IC50 (G-361) of the same compound?
The IC50 was greater than 8 µM.

And the IC50 (HT-3)?
Its IC50 is greater than 8 µM.

And the IC50 (SW837)?
The IC50 was greater than 8 µM.

And the IC50 (NCI-H1417)?
Its IC50 is greater than 8 µM.

What about the IC50 (DBTRG-05MG) of the same compound?
Its IC50 is greater than 8 µM.

And the IC50 (SU-DHL-1)?
The IC50 was greater than 8 µM.

And the IC50 (A-427)?
The IC50 was 5.97 µM.

And the IC50 (T98G)?
The IC50 was greater than 8 µM.

And the IC50 (TE-441-T)?
Its IC50 is greater than 8 µM.

What about the IC50 (MKN-28) of the same compound?
The IC50 was greater than 8 µM.

What about the IC50 (EFO-21) of the same compound?
The IC50 was greater than 8 µM.

And the IC50 (SNU-C1)?
Its IC50 is greater than 8 µM.

What about the IC50 (SBC-5) of the same compound?
Its IC50 is greater than 8 µM.

What about the IC50 (RPMI 8402; read-out: IC50) of the same compound?
Its IC50 is greater than 8 µM.

What about the IC50 (NCI-H1522) of the same compound?
Its IC50 is greater than 8 µM.

And the IC50 (ARH-77)?
Its IC50 is greater than 8 µM.

And the IC50 (NUGC-3)?
Its IC50 is greater than 8 µM.

What about the IC50 (PC-14) of the same compound?
The IC50 was greater than 8 µM.

With C#Cc1cccc(Nc2ncnc3cc(OCCOC)c(OCCOC)cc23)c1 [ERLOTINIB] as the compound, how does the IC50 (IST-SL2) read?
The IC50 was greater than 2 µM.

And the IC50 (WSU-NHL)?
Its IC50 is greater than 2 µM.

And the IC50 (RPMI-6666)?
The IC50 was greater than 2 µM.

What about the IC50 (NCI-H322M) of the same compound?
Its IC50 is greater than 2 µM.

What about the IC50 (TUR) of the same compound?
Its IC50 is greater than 2 µM.

And the IC50 (NCI-H1417)?
Its IC50 is greater than 2 µM.

What about the IC50 (SU-DHL-1) of the same compound?
The IC50 was greater than 2 µM.

What about the IC50 (TE-441-T) of the same compound?
The IC50 was greater than 2 µM.

And the IC50 (SNU-C1)?
Its IC50 is greater than 2 µM.

What about the IC50 (ARH-77) of the same compound?
Its IC50 is greater than 2 µM.

What does the source list for COc1cc2ncn(-c3cc(OCc4ccccc4S(C)(=O)=O)c(C#N)s3)c2cc1OC [GSK-319347A]?
IC50 (IST-SL2): > 5 µM; IC50 (WSU-NHL): > 5 µM; IC50 (RPMI-6666): > 5 µM; IC50 (NCI-H322M): > 5 µM; IC50 (TUR): > 5 µM; IC50 (NCI-H1417): > 5 µM; IC50 (SU-DHL-1): > 5 µM; IC50 (TE-441-T): > 5 µM; IC50 (SNU-C1): > 5 µM; IC50 (RPMI 8402; read-out: IC50): > 5 µM; IC50 (NCI-H1522): > 5 µM; IC50 (ARH-77): > 5 µM

With N[C@@H](CSC(c1ccccc1)(c1ccccc1)c1ccccc1)C(=O)O [S-TRITYL-L-CYSTEINE] as the compound, how does the IC50 (IST-SL2) read?
Its IC50 is 2.26 µM.

And the IC50 (WSU-NHL)?
Its IC50 is greater than 5.12 µM.

And the IC50 (RPMI-6666)?
The IC50 was greater than 5.12 µM.

And the IC50 (NCI-H322M)?
Its IC50 is greater than 5.12 µM.

What about the IC50 (TUR) of the same compound?
Its IC50 is greater than 5.12 µM.

And the IC50 (NCI-H1417)?
The IC50 was greater than 5.12 µM.

What about the IC50 (SU-DHL-1) of the same compound?
The IC50 was greater than 5.12 µM.

And the IC50 (TE-441-T)?
Its IC50 is 4.79 µM.

And the IC50 (SNU-C1)?
Its IC50 is greater than 5.12 µM.

And the IC50 (RPMI 8402; read-out: IC50)?
Its IC50 is 1.28 µM.

What about the IC50 (NCI-H1522) of the same compound?
Its IC50 is greater than 5.12 µM.

What about the IC50 (ARH-77) of the same compound?
The IC50 was 3.54 µM.

What does the source list for CC[C@H](CO)Nc1nc(NCc2ccccc2)c2ncn(C(C)C)c2n1 [SELICICLIB]?
IC50 (IST-SL2): > 16 µM; IC50 (WSU-NHL): > 16 µM; IC50 (RPMI-6666): 13.9 µM; IC50 (NCI-H322M): > 16 µM; IC50 (TUR): > 16 µM; IC50 (NCI-H1417): > 16 µM; IC50 (SU-DHL-1): > 16 µM; IC50 (TE-441-T): > 16 µM; IC50 (SNU-C1): > 16 µM; IC50 (RPMI 8402): 13.6 µM; IC50 (NCI-H1522): > 16 µM; IC50 (ARH-77): > 16 µM

Which results are given for CCN(CC)CCNC(=O)c1c(C)[nH]c(/C=C2\C(=O)Nc3ccc(F)cc32)c1C [SUNITINIB]?
IC50 (IST-SL2): 6.13 µM; IC50 (WSU-NHL): > 8 µM; IC50 (RPMI-6666): 3.54 µM; IC50 (NCI-H322M): > 8 µM; IC50 (TUR): > 8 µM; IC50 (NCI-H1417): > 8 µM; IC50 (SU-DHL-1): 4.8 µM; IC50 (TE-441-T): > 8 µM; IC50 (SNU-C1): > 8 µM; IC50 (RPMI 8402; read-out: IC50): 2.34 µM; IC50 (NCI-H1522): > 8 µM; IC50 (ARH-77): 7.54 µM
